Literature values as cited in patent US20200147085A1, “COMPOSITIONS AND METHODS FOR TREATMENT OF PSYCHIATRIC DISORDERS” (priority 2007, published 2020).

Experiments:
[1] = healthy controls, single oral dose of 400 mg of SAM
[2] = parenterally administered SAM
healthy volunteers = conditions: daily iv infusion for 7 days; not supine
[3] = tested on: chronic renal failure patients; conditions: 4 grams daily, with 5 mg folate and 50 mg pyridoxine daily; not fasting levels
[4] = rats, intraperitoneal
schizophrenic patients = conditions: 10-20 grams/day

C[S+](CC[C@H](N)C(=O)O)C[C@H]1O[C@@H](n2cnc3c(N)ncnc32)[C@H](O)[C@@H]1O (stereo partly drawn) [SAM, S-adenosylmethionine]
half-life of SAM [1]: 1.7 ± 0.3 h
SAM levels in cerebral spinal fluid [2]: about 130 % of controls
decrease in standing heart rate (healthy volunteers): 6 beats/minute

C[N+](C)(C)CC(=O)[O-] [betaine, trimethylglycine]
decrease of post-methionine loading homocysteine levels [3]: 18%

CSCC[C@H](N)C(=O)O [methionine, L-methionine]
SAM in brain [4]: about 130 % of controls
schizophrenic patients with worsened psychosis (schizophrenic patients): about 40%
